A short description of the series: photoluminescence quantum yield (fraction); solvent given as SMILES.

From the Deep4Chem optical property database come the findings set out here.

As to `F[B-]1(F)n2c(-c3ccccc3)cc(-c3ccccc3)c2C(c2ccccc2)=C2C(c3ccccc3)=CC(c3ccccc3)=[N+]21`, the photoluminescence quantum yield (in C1CCOC1) came out at 0.31.
On to `CC1=C2C=CC(C)=[N+]2[B-](F)(F)n2cccc21`, for which the photoluminescence quantum yield runs as follows: (in CCCCCC) 0.96; (in CO) 1; (in ClCCl) 0.89.
Turning to `CCN(CC)c1ccc2c(c1)oc(=O)c1cnc3c(cnn3-c3ccccc3)c12`, the photoluminescence quantum yield is, setting by setting: (in C1CCCCC1) 0.926; (in CCOC(C)=O) 0.885; (in CN(C)C=O) 0.296; (in CO) 0.222; (in ClCCl) 0.916.
For the setting “in C1CCCCC1”, `Cc1cccc2ccccc12` came in with a photoluminescence quantum yield of 0.4.
As to `CCCCCCCCCCCCN1C(=O)c2c(c3ccc4cc(-c5ccc(C=O)cc5)c(OC)cc4c3c3c2ccc2cc(-c4ccc(C=O)cc4)c(OC)cc23)C1=O`, the photoluminescence quantum yield (in ClCCl) is 0.157.
On to `C(=C\c1nc2ccccc2[nH]1)/c1ccc(-c2nc3c4cccnc4c4ncccc4c3[nH]2)cc1`, for which the photoluminescence quantum yield is 0.11 (in C1CCOC1), 0.15 (in CC#N), 0.09 (in CO) and 0.07 (in ClCCl).
`CCN(CC)c1ccc2c(-c3ccc(S(=O)(=O)O)cc3S(=O)(=O)[O-])c3ccc(=[N+](CC)CC)cc-3oc2c1`: the photoluminescence quantum yield runs as follows: (in CC#N) 0.58; (in CCO) 0.66; (in CN(C)C=O) 0.54; (in O) 0.36.
Regarding `F[Si](c1ccccc1)(c1ccccc1)c1c2ccccc2cc2ccccc12`, the photoluminescence quantum yield is, setting by setting: (in C1CCOC1) 0.86; (in ClC(Cl)Cl) 0.52.
The compound `CC(C)(C)c1ccc2c(c1)c1cc(C(C)(C)C)ccc1n2-c1ccc(S(=O)(=O)c2ccc(-n3c4ccc(C(C)(C)C)cc4c4cc(C(C)(C)C)ccc43)cn2)nc1` returned a photoluminescence quantum yield (in O=P(c1ccccc1)(c1ccccc1)c1ccc2sc3cccc(P(=O)(c4ccccc4)c4ccccc4)c3c2c1) of 0.62.
For `CCOC(=O)CN(CC(=O)OCC)c1ccc(-c2cc(-c3cccnc3)nc(-c3cccnc3)c2)cc1`, the photoluminescence quantum yield (in CC#N) came to 0.57; the photoluminescence quantum yield (in CCOC(C)=O) was 0.69; the photoluminescence quantum yield (in CN(C)C=O) was found to be 0.53; the photoluminescence quantum yield (in CS(C)=O) was found to be 0.51; the photoluminescence quantum yield (in c1ccccc1) came out at 0.77.
For `CCOC(=O)C1=CN(Cc2ccccc2)C=C(C(=O)OCC)C1`, the photoluminescence quantum yield was found to be 0.31 (in C1CCOC1) and 0.24 (in CO).
As for `CCOC(=O)COc1ccc(/C=C/C2=C3c4ccccc4C(c4[nH]c(C)cc4C)=[N+]3[B-](F)(F)n3c(C)cc(C)c32)cc1`, the photoluminescence quantum yield is, setting by setting: (in C1CCOC1) 0.012; (in CC#N) 0.005; (in CCCCCC) 0.013; (in CO) 0.002; (in Cc1ccccc1) 0.012; (in ClCCl) 0.014.
Compound `Cc1cc(C)c(B2c3cc(C(C)(C)C)cc4ccc5c6ccccc6c6cc(C(C)(C)C)cc2c6c5c34)c(C)c1` registered a photoluminescence quantum yield (in C1CCCCC1) of 0.72.
`CCOC(=O)c1sc(-c2ccc(-c3cc(-c4cccs4)c(C(=O)OCC)s3)s2)cc1-c1cccs1`: the photoluminescence quantum yield (in ClCCl) came out at 0.18.
With `CC(=O)c1ccc(-c2ccc3c(c2)C(=O)c2cc(-c4ccc(C(C)=O)cc4)ccc2-3)cc1`, the photoluminescence quantum yield (in C1CCOC1) came out at 0.03.
Regarding `C=Cc1ccc(OC)c(OC)c1`, the photoluminescence quantum yield came out at 0.32 (in C1CCCCC1) and 0.29 (in CC#N).
Under “in ClC(Cl)Cl”, `COc1ccc(C2=Cc3ccc4ccccc4[n+]3[B-](F)(F)O2)cc1` had a photoluminescence quantum yield of 0.94.
The compound `F[B-]1(F)n2cccc2C(c2ccccc2)=C2C=CC(c3cccc(OC4=[N+]5C(=C(c6ccccc6)c6cc(Br)c(-c7ccc[nH]7)n6[B-]5(F)F)C=C4Br)c3)=[N+]21` had a photoluminescence quantum yield (in ClC(Cl)Cl) of 0.18.
`CCOC(=O)c1c2c3c(cccc3c3cc4c(cc13)[Si](C)(C)O[Si]4(C)C)N(C)C2=O` gave a photoluminescence quantum yield (in CC#N) of 0.51.
In the case of `C(=C\c1ncnc2ccccc12)/c1ccc(N2CCCCC2)cc1`, the photoluminescence quantum yield (in ClCCl) was found to be 0.12.
`c1ccc2c3c(ccc2c1)-c1cccc2c1c-3cc1ccccc12` had a photoluminescence quantum yield (in CCCCCCC) of 0.16.
For the setting “in C1COCCO1”, `CCC1=C(C2=C(C3=C(CC)S(=O)(=O)c4cc(-c5ccc(C(C)=O)s5)ccc43)C(F)(F)C(F)(F)C2(F)F)c2ccc(-c3ccc(C(C)=O)s3)cc2S1(=O)=O` showed a photoluminescence quantum yield of 0.
On to `CCOC(=O)c1cc(C(=O)OCC)c2cc(N(CC)CC)ccc2n1`, for which, for the setting “in CCO”, the photoluminescence quantum yield came to 0.49.
For the setting “in ClC(Cl)Cl”, `CCCCCCCCn1c(=O)c2cc3cc4cc5c(=O)n(CCCCCCCC)c(=O)c5cc4c(C#Cc4ccc(N(c5ccccc5)c5ccccc5)cc4)c3cc2c1=O` showed a photoluminescence quantum yield of 0.39.
The compound `CC1=C(c2ccc(N(c3ccccc3)c3ccccc3)cc2)C(C)=[N+]2C1=C(c1c(-c3ccccn3)nc3ccccn13)c1c(C)cc(C)n1[B-]2(F)F` registered a photoluminescence quantum yield (in ClCCl) of 0.0038.
`Cc1ccc(OCc2cc(=O)oc3c2ccc2ccccc23)cc1`: the photoluminescence quantum yield turned out to be 0.0561 (in C1CCOC1); 0.0665 (in C1COCCO1); 0.0506 (in CC#N); 0.0465 (in CC(C)=O); 0.0333 (in CCCCO); 0.0312 (in CCCO). The compound also gave a photoluminescence quantum yield (in CCO) of 0.028; a photoluminescence quantum yield (in CCOC(C)=O) of 0.0471; a photoluminescence quantum yield (in CN(C)C=O) of 0.0576; a photoluminescence quantum yield (in CO) of 0.0265; a photoluminescence quantum yield (in Cc1ccccc1) of 0.0798; a photoluminescence quantum yield (in ClCCl) of 0.0584.
`COC(=O)C1=C(C(=O)OC)C2=C[C@H]3c4ccccc4[C@]2([Se]1)c1ccccc13` had a photoluminescence quantum yield (in ClCCl) of 0.86.
As for `C(=C\c1ccc(-c2nc3c4cccnc4c4ncccc4c3[nH]2)cc1)/c1ccncc1`, the photoluminescence quantum yield by setting is: (in C1CCOC1) 0.54; (in CC#N) 0.32; (in CO) 0.19; (in ClCCl) 0.48.
`CN1/C(=C/C=C(/C=C/C2=[N+](C)c3ccccc3C2(C)C)c2cccc(C(F)(F)F)c2)C(C)(C)c2ccccc21` had a photoluminescence quantum yield (in CCO) of 0.11 and a photoluminescence quantum yield (in CS(C)=O) of 0.16.
`CCOC(=O)c1sc(-c2ccc(-c3cc(-c4ccc(C(C)(C)C)cc4)c(C(=O)OCC)s3)s2)cc1-c1ccc(C(C)(C)C)cc1` showed a photoluminescence quantum yield (in ClCCl) of 0.15.
Take `CC(C)(C)/C=C/C1=[N+]2C(=C(c3c4ccccc4cc4ccccc34)c3ccc(/C=C/C(C)(C)C)n3[B-]2(F)F)C=C1`: the photoluminescence quantum yield (in ClC(Cl)Cl) was 0.58.
For `O=c1oc2ccc(Br)cc2cc1-c1cc2cc(Br)ccc2o1`, the photoluminescence quantum yield (in CS(C)=O) came to 0.2.
Take `CN(C)CCN(Cc1c2ccccc2cc2ccccc12)c1ccc([N+](=O)[O-])cc1`: the photoluminescence quantum yield runs as follows: (in C1CCCCC1) 0.0008; (in C1CCOC1) 0.0015; (in CC#N) 0.0143; (in CC(C)=O) 0.022; (in CCO) 0.023; (in CN(C)C=O) 0.0411. The photoluminescence quantum yield was found to be 0.0606 (in CO) and 0.0272 (in ClC(Cl)Cl).
Under “in CC1CCCO1”, `O=S1(=O)c2ccc(-c3ccc4c(c3)c3ccccc3n4-c3ccccc3)cc2C2(c3cc(-c4ccc5c(c4)c4ccccc4n5-c4ccccc4)ccc31)c1cc(-c3ccc4c(c3)c3ccccc3n4-c3ccccc3)ccc1S(=O)(=O)c1ccc(-c3ccc4c(c3)c3ccccc3n4-c3ccccc3)cc12` yielded a photoluminescence quantum yield of 0.83.
With `c1ccc(N(c2ccccc2)c2ccc3c4cccc5c(N(c6ccccc6)c6ccccc6)ccc(c6cccc2c63)c54)cc1`, for the setting “in ClCCl”, the photoluminescence quantum yield worked out at 0.65.
Turning to `Cn1c(=O)cc(C(=O)c2ccccc2)c2sc(-c3ccc(C(F)(F)F)cc3)cc21`, the photoluminescence quantum yield (in CC#N) is 0.8 and the photoluminescence quantum yield (in ClCCl) is 0.82.
`CCCCCCCCCCCCN1C(=O)c2c(c3ccc4cc(-c5ccc(C)cc5)c(OC)cc4c3c3c2ccc2cc(-c4ccc(C)cc4)c(OC)cc23)C1=O` showed a photoluminescence quantum yield (in ClCCl) of 0.151.
Under “in ClCCl”, `C(=C\c1cnccn1)/c1ccc(N(c2ccccc2)c2ccccc2)cc1` came in with a photoluminescence quantum yield of 0.41.
For the setting “in Cc1ccccc1”, `c1ccc(-c2nnc(-c3ccc(N4c5ccccc5Oc5ccccc54)cc3)n2-c2ccccc2)cc1` had a photoluminescence quantum yield of 0.127.
On to `CCCCCCCCCCC1(CCCCCCCCCC)c2cc(-c3nc4ccccc4s3)ccc2-c2ccc(N3C(=O)c4ccc5c6ccc7c8c(ccc(c9ccc(c4c59)C3=O)c86)C(=O)N(c3ccc4c(c3)C(CCCCCCCCCC)(CCCCCCCCCC)c3cc(-c5nc6ccccc6s5)ccc3-4)C7=O)cc21`, for which the photoluminescence quantum yield was 0.23 (in Cc1ccccc1) and 0.0025 (in ClCCl).
`Oc1ccccc1/C=N/c1cc2nc3ccccc3nc2cc1/N=C/c1ccccc1O` yielded a photoluminescence quantum yield (in CC#N) of 0.34.
For the compound `Cc1nc2cccc(-c3nc4ccccc4[nH]3)c2c(=O)[nH]1`, the photoluminescence quantum yield (in CN(C)C=O) was found to be 0.088.
Under “in ClCCl”, `O=c1oc2ccccc2c2c1c(=O)oc1c3ccccc3cc(O)c12` displayed a photoluminescence quantum yield of 0.29.
Take `C(=C\c1ccc(N(c2ccc(/C=C/c3ccc(-c4cc(-c5ccccc5)nc(-c5ccccc5)c4)cc3)cc2)c2ccc(/C=C/c3ccc(-c4cc(-c5ccccc5)nc(-c5ccccc5)c4)cc3)cc2)cc1)/c1ccc(-c2cc(-c3ccccc3)nc(-c3ccccc3)c2)cc1`: the photoluminescence quantum yield was determined as 0.08 (in C1CCOC1) and 0.14 (in Cc1ccccc1).
In the case of `CCCCN1C(=O)c2cc(Oc3ccc(C(C)(C)C)cc3)c3c4c(Oc5ccc(C(C)(C)C)cc5)cc5c(=O)n6c(c7cc(Oc8ccc(C(C)(C)C)cc8)c(c8c(Oc9ccc(C(C)(C)C)cc9)cc(c2c38)C1=O)c4c57)=Cc1cccc[n+]1[B-]6(F)F`, the photoluminescence quantum yield was 0.564 (in C1CCOC1), 0.451 (in Cc1ccccc1) and 0.5 (in ClCCl).
As for `CCn1c(-c2ccc(-c3cccc4ccccc34)cc2)c(-c2ccc3ccccc3c2)c(-c2ccc3ccccc3c2)c1-c1ccc(-c2cccc3ccccc23)cc1`, for the setting “in CCOC(C)=O”, the photoluminescence quantum yield was found to be 0.35.
